# Measurements taken from US20240082260A1, “INHIBITOR OF PROTEIN KINASE D FOR USE IN PREVENTION OR TREATMENT OF HYPERLIPIDEMIA” (priority 2021, published 2024).
# Assays:
# male C57BL/6 mice on HFD = assay: Oral PKD inhibitor in HFD-fed C57BL/6 mice (diet-induced obesity and diabetes); type: in vivo, mouse
# Protocol: Mice body weight development was closely monitored and reported here on a weekly basis when mice were on a specified diet. All experiments were performed in male mice.
# (§1) PKD inhibitor CRT0066101 was dissolved in water (10 mg/kg) and administered orally to the mice by daily gavage, while the control mice were gavaged with water. Mice were maintained on the specified diets and had ab libitum access to food and water. C57BL/6 mice were administered CRT inhibitor treatment at 4-weeks of age, while for the rescue experiment, inhibitor was given under the same circumstances but treatment started only after 7 weeks of HFD feeding. Intestinal barrier permeability was further assessed 1 hour after oral gavage of FITC-Dextran 4.
# Energy expenditure, food intake, and activity measurements were obtained in a PhenoMaster (TSE Systems) as previously described (El-Merahbi, Viera et al., 2020, Trujillo Viera, El-Merahbi et al., 2016). Briefly, mice were kept in separate metabolic cages with unlimited access to water and to the specified diet. After 48 hours of acclimation, data was collected every 10 min including photobeam breaks, oxygen consumption, carbon dioxide dissipation, and food and water consumption. Results in bars represent the average of each night/day cycle.
# A glucose tolerance test (GTT) was performed after overnight fasting. Mice blood glucose was assessed before and 15, 30, 60, 90, and 120 minutes after intraperitoneal injection of glucose (2 g/kg). For the Insulin tolerance test (ITT), the same measurements were performed after 4 hours of fasting and intraperitoneal injection of 0.5 U/kg of recombinant insulin. For glucose measurements, one blood drop was drawn from the tail tip into a test strip and measured with a glucometer (Accu-Chek® Roche).
# Lipids tolerance test was performed as described previously (Wang, Rong et al., 2016b). Briefly, overnight fasted mice were gavaged with olive oil (10 μL/g body weight). Blood was collected at indicated times for measurement of serum triglycerides content. For lipids absorption under tyloxapol treatment, 250 μg/g of body weight were i.p. injected to mice 30 minutes before the gavage of olive oil 5 μL/g body weight.
# Liver triglycerides were measured by homogenization of 50 mg of liver in 500 uL of lysis buffer and lipids extraction in methanol:chloroform, phase extraction and evaporation. The lipids were redissolved in DMSO and triglycerides quantified with the mentioned kit and according to the manufacturers' instructions.
# The bedding of single-caged mice was collected and the ingested food ingestion from the individual mice was assessed. All the stools were manually collected. After overnight dissecation at 60° C., the samples were weighted and frozen for further analysis. The amount of feces produced per mouse was compared to the amount of food consumed and the weight gain. About 3 g of dried feces material were homogenized and 1 g was pressed into a tablet and accurately weighted. Calorie content from feces and diet was measured in duplicates in a 6400 Automatic Isoperibol calorimeter (Parr Instrument Company). To analyze energy excreted, the amount of energy in feces was compared to the amount of energy ingested (the product between grams of food and caloric content of the food). Lipids extraction from feces was performed as previously described (Kraus, Yang et al., 2015).
# (§2) Proteins from tissues and cell culture were extracted with RIPA buffer supplemented with phosphatase and protease inhibitor (PPI, Thermo Fisher Scientific). Protein concentration was measured by Pierce™ BCA Protein Assay Kit (Thermo Fisher Scientific) following the manufacturer's protocol. Reduced protein extracts were separated on 10% SDS-PAGE gels by electrophoresis and transferred to PVDF membranes under wet transfer. Membranes were blocked in 5% (w/v) milk in TBS-T before overnight probing with indicated primary antibodies at 4° C., followed by TBS-T washes and incubation with corresponding secondary antibody.
# PKD2 = target: T1, PKD2 (Homo sapiens, UniProt Q9BZL6); assay: In-vitro kinase assay: PKD2 phosphorylation of APOA4; type: biochemical; conditions: recombinant human PKD2 and APOA4, western blot, FIG. 5H
# T1 construct: purchased Abcam ab60875
# T1 sequence (Q9BZL6 1-878): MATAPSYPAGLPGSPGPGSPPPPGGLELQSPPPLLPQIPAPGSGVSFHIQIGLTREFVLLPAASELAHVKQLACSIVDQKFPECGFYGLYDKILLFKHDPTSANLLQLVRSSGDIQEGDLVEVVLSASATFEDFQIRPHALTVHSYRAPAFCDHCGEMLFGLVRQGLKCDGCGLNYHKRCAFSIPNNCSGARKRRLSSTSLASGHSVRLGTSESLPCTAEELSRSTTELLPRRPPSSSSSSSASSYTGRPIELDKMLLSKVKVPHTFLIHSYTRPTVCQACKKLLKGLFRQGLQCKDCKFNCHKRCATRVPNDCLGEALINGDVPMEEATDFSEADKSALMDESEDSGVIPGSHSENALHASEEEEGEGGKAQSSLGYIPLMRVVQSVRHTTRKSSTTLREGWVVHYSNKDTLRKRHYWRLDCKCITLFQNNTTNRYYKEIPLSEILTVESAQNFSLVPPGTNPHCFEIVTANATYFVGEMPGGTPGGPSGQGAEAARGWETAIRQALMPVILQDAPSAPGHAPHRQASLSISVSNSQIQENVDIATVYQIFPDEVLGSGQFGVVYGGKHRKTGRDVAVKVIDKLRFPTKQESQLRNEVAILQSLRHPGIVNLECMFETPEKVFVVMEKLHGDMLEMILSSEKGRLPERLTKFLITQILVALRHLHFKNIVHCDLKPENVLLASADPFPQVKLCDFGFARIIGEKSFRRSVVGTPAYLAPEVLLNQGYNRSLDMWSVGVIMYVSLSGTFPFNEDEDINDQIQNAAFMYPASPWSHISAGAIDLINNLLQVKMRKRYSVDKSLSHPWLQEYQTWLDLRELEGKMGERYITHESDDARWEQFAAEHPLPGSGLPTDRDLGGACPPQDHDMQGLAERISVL
# Protocol: Recombinant human proteins used for the study, PKD2 and APOA4, were both purchased from Abcam. […] Then, western blot was performed and incubated with a primary antibody against the phosphorylated motif (RxxS/T*) (Cell Signaling).
# phosphorylated PKD2 = conditions: oral 10 mg/kg once a day, HFD
# Protocol: as §1, §2
# PKD 1/2 = conditions: oral, dose 8 times higher than used here, cited from earlier work
compound,measurement,setting,value
CC[C@@H](N)CNc1ccnc(-c2cc(-c3cnn(C)c3)ccc2O)n1 [CRT0066101],accumulation of TG in the liver,"male C57BL/6 mice on HFD; oral 10 mg/kg daily, HFD",did not affect
same,brown adipose tissue morphology,"male C57BL/6 mice on HFD; oral 10 mg/kg daily, HFD","promoted healthier, multilocular brown adipose tissue"
same,energy expenditure,"male C57BL/6 mice on HFD; oral 10 mg/kg daily, HFD",did not affect
same,food consumption,"male C57BL/6 mice on HFD; oral 10 mg/kg daily, HFD",did not affect
same,markers of liver function,"male C57BL/6 mice on HFD; oral 10 mg/kg daily, HFD",did not affect
same,mobility,"male C57BL/6 mice on HFD; oral 10 mg/kg daily, HFD",did not affect
same,body weight gain,"male C57BL/6 mice on HFD; oral 10 mg/kg daily, HFD, 13 weeks, vs water, FIG. 6G",significantly lower body weight gain
same,"levels of APOA4 in the intestine (jejunum, western blot)","male C57BL/6 mice on HFD; oral 10 mg/kg daily, HFD, 13 weeks, FIG. 6F",increased levels of APOA4
same,fecal energy excretion,"male C57BL/6 mice on HFD; oral 10 mg/kg daily, HFD, FIG. 6D",greater fecal energy excretion
same,intestinal TG absorption (lipids tolerance test after olive oil gavage),"male C57BL/6 mice on HFD; oral 10 mg/kg daily, after 9 weeks HFD, FIG. 6E",decreased intestinal TG absorption
same,glucose tolerance (GTT),"male C57BL/6 mice on HFD; oral 10 mg/kg daily, after 10 weeks of treatment and HFD, FIG. 6H",improved
same,insulin tolerance (ITT),"male C57BL/6 mice on HFD; oral 10 mg/kg daily, after 11 weeks of treatment and HFD, FIG. 6I",improved
same,obesity induced by a high-fat diet (summary statement),"male C57BL/6 mice on HFD; oral administration, mice, also said to prevent hyperlipidemia and diabetes and improve microflora",significantly reduces obesity induced by a high-fat diet
same,PKD2-dependent phosphorylation of APOA4,PKD2,abrogates PKD2-dependent phosphorylation
same,PKD activity in liver or adipose tissue,phosphorylated PKD2,no similar decrease was observed
same,intestinal PKD activity (phosphorylated PKD2 in jejunum),"phosphorylated PKD2; 13 weeks, FIG. 6C",attenuated
same,reduction in PKD 1/2 activation,PKD 1/2; pancreatic tumors,50%
same,time of highest concentrations in pancreatic tumors,PKD 1/2,2 h
